Measured values reported in US8623914B2, “Medical composition” (TSUMURA & Co., priority 2011, dated 2014).

Key:
Parameters in all cases: species or system rat
[1] = system: large intestinal peristaltic motility; test: Test 1: action of each Daikenchuto component on peristaltic motility of the isolated intestine in an organ bath; settings: for AUC (area under curve peak) / Mean-PPA (mean of peak pressure amplitude) / PF (peak frequency): value before addition = 100%
Procedure: Investigation of the Action of Each Crude Drug Component Contained in Daikenchuto on the Large Intestinal Peristaltic Motility:
Rats were used as experimental animals. According to the following way, the components contained in Daikenchuto, i.e., HAS, 6-shogaol (hereinafter abbreviated as “6-S”) and 6-gingerol (hereinafter abbreviated as “6-G”), were tested for the action on the peristaltic motility.
Male SD rats (provided by Japan Charles River Co.; SPF animals) were obtained at 6 weeks of age (body weight: 190-220 g) and the test was started at 7-9 weeks of age (body weight: 220-280 g at acquisition and using). Breeding was conducted at a temperature of 20-26° C. and a humidity of 35-75%, in aeration frequency of 15-25/hour in a cage under lighting for 12 hours (7 o'clock to 19 o'clock) per day, wherein 4 rats were placed in a cage. For feeding, solid feed MF (Oriental Yeast Co., Ltd.) was used, and the rats were able to freely drink ordinary tap water (Amimachi, Ibaraki Pref).
(§1) Normal rats which fasted overnight with free access to water were decapitated for mercy killing. Immediately, the intestine was removed and cut into 3-4 cm pieces, which were used as test samples. The removed test samples were immersed in an organ bath (perfusion rate: 3.5 mL/min) filled with a Krebs solution warmed at 32-33° C. and saturated with 95% O2/5% CO2 gas mixture. […] From the mouth side, physiological saline was injected at a certain rate (0.15 mL/min), and the frequency and amplitude of the pressure change in the lumen caused by the intestinal peristaltic motility were measured by means of a microchip pressure transducer (SPR-524, Millar Instruments Co.). After confirmation of the stabilized peristaltic motility in the test samples (intestinal tract), a test drug was added to the organ bath. Before and after the addition, the change of peristaltic motility for 10 minutes was determined by using recorded wave profile for the mean peak pressure amplitude (mean-PPA), the area under curve (AUC) of the peak and the peak frequency (PF) in the transducer. The resulting recorded wave profile was converted into numerical terms as the amplitude or frequency of the peristaltic motility by an analysis software. The value before the addition of the test drug was regarded as 100% for comparison and evaluation.

[2] = system: intestinal peristaltic motility; test: Test 2: peristaltic motility, combinations of HAS with 6-S or 6-G, same manner as Test 1; settings: for AUC (area under curve peak) / Mean-PPA (mean of peak pressure amplitude) / PF (peak frequency): value before addition = 100%; for enhancement of the prokinetic effect on peristaltic motility by combining with HAS (in words): combined with HAS at a dose too low to exert the effect when used alone
Procedure: as §1
On the basis of the prokinetic effect of HAS, 6-S and 6-G on peristaltic motility in Test 1, the change of the prokinetic effect in a combination of these compounds was investigated in the same manner as in Test 1.

[3] = system: intestinal peristaltic motility; test: Test 4: peristaltic motility, HAS and bethanechol chloride alone and combined, same manner as Test 1; settings: for AUC (area under curve peak) / Mean-PPA (mean of peak pressure amplitude) / PF (peak frequency): value before addition = 100%
Procedure: as §1, with “After confirmation of the stabilized peristaltic motility in the test samples (intestinal tract), a test drug was added to the organ bath. Before and after the addition, the change of peristaltic motility for 10 minutes was determined by using recorded wave profile for the mean peak pressure amplitude (mean-PPA), the area under curve (AUC) of the peak and the peak frequency (PF) in the transducer.” left out

[4] = system: intestinal peristaltic motility; test: Test 3: peristaltic motility, HAS and CAP alone and combined, same manner as Test 1; settings: for AUC (area under curve peak) / Mean-PPA (mean of peak pressure amplitude) / PF (peak frequency): value before addition = 100%
Procedure: as §1
The respective prokinetic effect of HAS and CAP on peristaltic motility and change of the effect in a combination of these compounds were investigated in the same manner as in Test 1.

[5] = HAS 3 μM + CAP 0.03 μM versus CAP alone

SMILES	prokinetic effect on peristaltic motility (in words) ([1]; 1 μM)	AUC (area under curve peak) ([1]; 1 μM) [%]	Mean-PPA (mean of peak pressure amplitude) ([1]; 1 μM) [%]	PF (peak frequency) ([1]; 1 μM) [%]	prokinetic effect on peristaltic motility (in words) ([1]; 10 μM)	AUC (area under curve peak) ([1]; 10 μM) [%]	Mean-PPA (mean of peak pressure amplitude) ([1]; 10 μM) [%]	PF (peak frequency) ([1]; 10 μM) [%]	AUC (area under curve peak) ([2]; 3 μM) [%]	Mean-PPA (mean of peak pressure amplitude) ([2]; 3 μM) [%]	PF (peak frequency) ([2]; 3 μM) [%]	enhancement of the prokinetic effect on peristaltic motility by combining with HAS (in words) [2]	other results
CCCCC[C@H](O)CC(=O)CCc1ccc(O)c(OC)c1 [6-G, 6-gingerol]	weak prokinetic effect	120.5	141.1	115.0	significant prokinetic effect	188.2	304.2	76.9	174.9	235.8	102.9	potent enhancement	–
CCCCC/C=C/C(=O)CCc1ccc(O)c(OC)c1 [6-S, 6-shogaol]	promoted weakly	133.3	202.6	102.6	prokinetic effect disappeared	73.4	94.6	120.8	–	–	–	potent enhancement	AUC (area under curve peak) ([2]; 1 μM): 133.3%; Mean-PPA (mean of peak pressure amplitude) ([2]; 1 μM): 202.6%; PF (peak frequency) ([2]; 1 μM): 115.0%
CC(C[N+](C)(C)C)OC(N)=O (centres unmarked) [Beth, bethanechol chloride]	–	–	–	–	–	–	–	–	–	–	–	–	AUC (area under curve peak) ([3]; 1 μM): 87.6%; Mean-PPA (mean of peak pressure amplitude) ([3]; 1 μM): 98.9%; PF (peak frequency) ([3]; 1 μM): 153.8%
COc1cc(CNC(=O)CCCC/C=C/C(C)C)ccc1O [CAP, capsaicin]	–	–	–	–	–	–	–	–	–	–	–	–	AUC (area under curve peak) ([4]; 0.03 μM): 147.1%; Mean-PPA (mean of peak pressure amplitude) ([4]; 0.03 μM): 143.7%; PF (peak frequency) ([4]; 0.03 μM): 108.1%
C/C=C/C=C/C=C\CC/C=C/C(=O)NCC(C)(C)O [HAS, Hydroxy-α-sanshool]	–	–	–	–	very strong prokinetic effect	227.9	478.2	52.5	99.0	101.2	93.0	–	prokinetic effect on peristaltic motility (in words) ([1]; 3 μM): no influence; AUC (area under curve peak) ([1]; 3 μM): 121.5%; Mean-PPA (mean of peak pressure amplitude) ([1]; 3 μM): 119.5%; PF (peak frequency) ([1]; 3 μM): 98.3%; AUC (area under curve peak) ([4]; 3 μM): 110.2%; Mean-PPA (mean of peak pressure amplitude) ([4]; 3 μM): 105.7%; PF (peak frequency) ([4]; 3 μM): 98.7%; enhancement by HAS of the increase in AUC induced by CAP [4, 5]: ~4.6 times; enhancement by HAS of the increase in PPA induced by CAP [4, 5]: about 9.8 times; AUC (area under curve peak) ([3]; 3 μM): 130.6%; Mean-PPA (mean of peak pressure amplitude) ([3]; 3 μM): 105.2%; PF (peak frequency) ([3]; 3 μM): 84.6%; enhancement by HAS of the increase in PF induced by Beth ([3]; HAS 3 μM + Beth 1 μM versus Beth alone): twice or more
